Consider two molecules from patent US8129532B2, “Amino(oligo)thiophene dyes, preparation thereof, and optical methods of use” (The University of Connecticut, priority 2007, dated 2012).

The nature of data set [1]: One-photon absorption and emission spectra in multilamellar lipid vesicles, water and ethanol. Type of data set: physicochemical. Particulars: for Absorbance MLV / Emission MLV: multilamellar lipid vesicles. From the text:
[…] The column indicating relative signal change for one-photon fluorescence also lists the excitation light source used and the lower bounds of the long-pass emission detected.
Absorption and emission spectra were obtained for a series of dyes with different acceptors: pyridinium (PY-1261), quinolinium (PY-212), and acridinium (PY-2240).

For data set [2], the system named is layer V pyramidal neurons. Description: Voltage-sensitive dye imaging of action potentials in intracellularly stained pyramidal neurons in brain slices. Type of data set: cell-based, Sprague Dawley rats. Particulars: for AP-associated optical signal, single example (base line-to-peak): FIG. 11, basal dendrite. From the text: Sprague Dawley rats (P21-42) were anesthetized with isoflurane, decapitated, and the brains were removed with the head immersed in ice-cold, artificial cerebrospinal fluid (ACSF), according to an animal protocol approved by the Center for Laboratory Animal Care, University of Connecticut. Brain slices (300 μm) were cut from frontal lobes in the coronal plane. ACSF contained (in mM) 125 NaCl, 26 NaHCO3, 10 glucose, 2.3 KCl, 1.26 KH2PO4, 2 CaCl2 and 1 MgSO4, pH 7.4. Whole-cell recordings were made from visually identified layer V pyramidal neurons on the medial part of the slice. Intracellular solution contained (in mM) 135 K-gluconate, 2 MgCl2, 3 Na2-ATP, 10 Na2-phosphocreatine, 0.3 Na2-GTP and 10 Hepes (pH 7.3, adjusted with KOH). Electrical signals were amplified with Multiclamp 700A and digitized with two input boards: (1) Digidata Series 1322A (Axon Instruments) at 5 kHz, and (2) Neuroplex (RedShirtImaging) at 2.7 kHz sampling rate. Only cells with a membrane potential more hyperpolarized than −50 mV, and action potential amplitudes exceeding 80 mV (measured from the base line) were included in this study. All experiments were performed on layer 5 cortical pyramidal cells at 34° C.
Blue dyes were stored in ethanol stock solution at −20° C. On the day of the recording blue dyes were dissolved in standard K-gluconate based intracellular solution. A loading pipette was filled with two varieties of the same intracellular solution; one with and one without dye. Dye-free solution was occupying the very tip of the pipette, while the back of the pipette lumen was microloaded with dye-rich solution. The purpose of dye-free solution in the tip of the patch pipette was to prevent dye-leak during the maneuver through brain slice tissue. VSD styryl dyes are lipophilic and bind indiscriminately and irreversibly to all membranes around the neuron of interest. Even a small amount of dye that leaks out of the pipette during the formation of the gigaohm seal, can generate strong fluorescent background. Fluorescent light emanating from surrounding tissue has a devastating effect on dendritic optical signals. Elimination of the background fluorescence is critical for dendritic voltage imaging. How much dye-free solution one should put in the tip depends on time period between the submersion of the patch pipette into the recording chamber and formation of the gigaohm seal. The faster one can perform this maneuver the less dye-free solution she needs to achieve optimal staining.
Blue VSD were injected at room temperature for 25-60 minutes. The filling pipette was carefully pulled out (outside-out patch) and brain slices were left to incubate for 20-120 minutes at room temperature. Just before optical recordings the cells were re-patched with dye-free pipette at the physiological temperature (34° C.).
Voltage-sensitive dye imaging was performed on a Zeiss Axioskope 2FS microscope equipped with NeuroCCD camera (RedShirtImaging). We used Zeiss 40× objective IR-Achroplan 0.80 W. The size of the square visual field captured by NeuroCCD camera was 384×384 um. In the place of the arc lamp (normally used for epi-illumination), we inserted a 200 μm fiber optic guide with a collimator. Laser beam was focused on the other side of the fiber optic guide using a microscope objective-like lens. This arrangement produced a motionless spot of laser light (˜25 μm in diameter) at the object plane. An illuminated section of the brain slice, projected onto the NeuroCCD camera, covered approximately 25 pixels when used with 40× objective lens. At this magnification, one pixel sampled a 4.8×4.8 square in the object plane. A region of interest (ROI) was brought into the laser spot using X-Y microscope platform. The laser beam was interrupted by an electro-programmable shutter (Uniblitz®). Attention was made to limit the exposure time during the recording and positioning of the neuron.

For data set [3], the system named is layer V pyramidal neurons. Nature of the data set: Toxicity / photodynamic damage: AP half-width during optical recording. From the text: S. Antic, G. Major, D. Zecevic, “Fast optical recordings of membrane potential changes from dendrites of pyramidal neurons”, Journal of Neurophysiology, 82, 1615-1621 (1999). Accumulation of reactive oxygen species (free radicals), which interact with and damage neuronal plasmalemma, is the most likely mechanism. J. B. Feix, B. Kalyanaraman, “Production of singlet oxygen-derived hydroxyl radical adducts during merocyanine-540-mediated photosensitization: analysis by ESR-spin trapping and HPLC with electrochemical detection”, Archives of Biochemistry & Biophysics, volume 291, pages 43-51 (1991). High intensity illumination during optical recording sessions excites large number of membrane bound dye molecules. Since styryl dyes have tendency to penetrate deep into the lipid bilayers (E. Fluhler, V. G. Burnham, L. M. Loew, “Spectra, membrane binding, and potentiometric responses of new charge shift probes”, Biochemistry, 24, 5749-5755 (1985)), free radicals are produced literally inside the neuronal membrane. […] S. D. Antic, “Action potentials in basal and oblique dendrites of rat neocortical pyramidal neurons”, Journal of Physiology 550, 35-50 (2003). […] Since dye loading was always done at room temperature (21° C.) and re-patching at 34° C., we could not compare AP shape and size before and after dye loading. Therefore, in order to check the extent of dye toxicity we designed a group of experiments in which neurons were injected and incubated at 34° C. During the dye injection (loading phase), in regular time intervals (3-5 min) direct current pulses was used to slowly charge the membrane and trigger an AP (FIG. 14A). Identical current pulse was then applied at the end of dye loading phase, just before the electrode pull-out (FIG. 14B) and after the 50-90 min incubation period (FIG. 14C, re-patch). […] To avoid AP jitter in optical recordings we used shorter and stronger current pulses (FIG. 14D, E, F, insets). However, from time to time we returned to AP-testing current injection protocol (FIG. 14D, E), while keeping the count on the number of cumulative high-intensity light exposures (# sweeps). […] Additional experimental details can be found in Ping Yan, Aifang Xie, Meide Wei, and Leslie M. Loew, “Amino(oligo)thiophene-Based Environmentally Sensitive Biomembrane Chromophores”, Journal of Organic Chemistry, published on web Jul. 30, 2008.

As to “Di-1-ANEPEQ [JPW-3028, reference compound]”, in data set [1], the Absorbance ethanol was 511 nm, the Emission ethanol is on record as 718 nm, the “Absorbance MLV” value amounted to 457 nm and the “Emission MLV” value is recorded as 670 nm. Besides, the Absorbance water in data set [1] is 440 nm. Also, the “AP-associated optical signal, single example (base line-to-peak)” value in data set [2] is recorded as 5 % ΔF/F. Moreover, the “S/N ratio at 532 nm” value in data set [2] (laser spot 532 nm) is on record as “{at 532 nm = 5.95 ± 2.16}”. The “slope of linear fit, AP half-width versus cumulative sweeps” value in data set [3] (FIG. 15A, 15C) stood at 0.0027. Besides, the “sweeps recorded before AP half-width grew by more than 15% from control” value in data set [3] (n=12) came out at 86±28 sweeps.
Take `CCN(CC)c1ccc2cc(/C=C/C=C/c3cc[n+](CCC[N+](C)(C)C)c4ccccc34)ccc2c1.[Br-].[Br-]` [JPW-4090, Di-2-ANBDQPQ]: in data set [1], the Absorbance ethanol was 584 nm, the Emission ethanol is listed as 812 nm, the “Absorbance MLV” value was 526 nm and the “Emission MLV” value was determined as 702 nm. Also, the Absorbance water in data set [1] is reported as 490 nm. Further, in data set [2], the “polarity of optical signal at 532 nm excitation” value is reported as “positive signals”; the “polarity of optical signal at 658 nm excitation” value was “positive signals”; the “AP-associated optical signal, single example (base line-to-peak)” value was determined as 17 % ΔF/F. Moreover, in data set [2] (FIG. 11), the “optical signal amplitude of blue dye relative to red dye JPW-3028” value is “approximately 3 times”. Moreover, the “dF/F at 633 nm” value in data set [2] (backpropagating AP, basal dendrites 80-150 μm from soma, laser spot 633 nm, %) is 12.70 ± 3.59%. Also, the “dF/F at 658 nm” value in data set [2] (backpropagating AP, basal dendrites 80-150 μm from soma, laser spot 658 nm, %) was found to be 11.03 ± 2.24%. Moreover, the “voltage sensitivity compared with red dye” value in data set [2] (basal dendrites 80-150 μm from soma) is given as “better sensitivity than red dye JPW-3028”. Moreover, in data set [2] (laser spot 633 nm), the “S/N ratio at 633 nm” value was 5.48 ± 2.01. The “S/N ratio at 658 nm” value in data set [2] (laser spot 658 nm) is reported as 6.93±1.88. Besides, in data set [3] (Sprague-Dawley, rat), the “slope of linear fit, AP half-width versus cumulative sweeps” value was 0.0003; the “sweeps recorded per session on average” value amounted to 114±67 sweeps; the “time since beginning of dye injection without AP broadening” value was no less than 192 min.
